# Measured values from US10590460B2, “Selective enrichment medium for carbapenem-resistant bacteria” (priority 2008, dated 2020).
# How the values were obtained:
# [1] = system: carbapenem-sensitive flora; assay: Culture of carbapenem-sensitive or carbapenem-resistant strains on CHROMagar Orientation medium with a carbapenem; type: cell-based
# Procedure: Different strains of carbapenem-sensitive bacteria or carbapenem-resistant bacteria were cultured under three sets of conditions: • group 1: CHROMagar Orientation medium • group 2: CHROMagar Orientation medium in the presence of meropenem (0.065; 0.25; 1 or 4 mg/L); and • group 3: CHROMagar Orientation medium in the presence of imipenem (MSD, TIENAM (includes 50% imipenem) 0.0325; 0.125; 0.5 or 2 mg/L of imipenem)
# Different strains of carbapenem-sensitive bacteria or carbapenem-resistant bacteria were cultured under two sets of conditions: • group 1: CHROMagar Orientation medium; and • group 2: CHROMagar Orientation medium in the presence of ertapenem (INVAZ; 0.0325; 0.065; 0.125; 0.25; 0.5 or 2 mg/L).
# [2] = type: physicochemical
# Procedure: (§1) Different strains of carbapenem-sensitive bacteria or carbapenem-resistant bacteria were cultured under three different sets of conditions and with different spreading concentrations: • group 1: CHROMagar Orientation medium • group 2: CHROMagar Orientation medium in the presence of imipenem (MSD, TIENAM (includes 50% imipenem) 1 or 2 mg/L imipenem), and • group 3: CHROMagar Orientation medium in the presence of meropenem (0.12 or 0.25 mg/L).
# (§2) Culture plates were then incubated at 37° C. and analysed regularly to establish the growth or absence of growth of bacteria.
# [3] = system: carbapenem-sensitive bacteria; assay: Ageing tests on meropenem versus imipenem in CHROMagar Orientation medium; type: cell-based
# Procedure: as §1, §2
Compound,minimum concentration to eliminate carbapenem-sensitive flora [1] [mg/L],stability in an agar medium (duration) [2] [months],stability in the used culture medium compared to imipenem [2],minimum concentration of meropenem relative to necessary minimum concentration of imipenem [1],"inhibition of the growth of carbapenem-sensitive bacteria ([3]; 0.25 mg/L meropenem, 55 days in culture, 37° C.)","effectiveness in terms of inhibition compared to imipenem ([3]; ageing test, CHROMagar Orientation medium)",stability in an agar medium (in words) [2],minimum concentration needed to eliminate carbapenem-sensitive flora (in words) ([1]; ertapenem 0.0325-2 mg/L tested)
C[C@@H](O)[C@H]1C(=O)N2C(C(=O)O)=C(SCCN=CN)C[C@H]12 [imipenem],1,–,–,–,–,–,–,–
C[C@@H](O)[C@H]1C(=O)N2C(C(=O)O)=C(S[C@@H]3CN[C@H](C(=O)N(C)C)C3)[C@H](C)[C@H]12 [meropenem],0.25,2 to 4,much higher stability,about ten times lower,always higher than inhibition obtained at a concentration of 0.12 mg/L of meropenem after 36 days in culture,much more effective than imipenem,–,–
C[C@@H](O)[C@H]1C(=O)N2C(C(=O)O)=C(S[C@@H]3CN[C@H](C(=O)Nc4cccc(C(=O)O)c4)C3)[C@H](C)[C@H]12 [ertapenem],–,2 to 4,–,–,–,–,good,falls between that of meropenem and imipenem
